What was measured:
[1] = Particle size distribution after wet milling with high speed homogenizer (Silverson L5M-A); type: physicochemical; conditions: water
Procedure: As used herein, the term “particle size distribution” is expressed in terms of D90, D50 and D10, which corresponds to the diameter of 90 percent by volume of the particles, 50 percent by volume of the particles and 10 percent by volume of the particles are present, respectively.
The particle size distribution of pirfenidone is measured utilizing: Instrument model: Malvern; Mastersizer 3000; particle refraction index of sample: 1.700; Absorption: 0.01 and Analysis model: general purpose, normal sensitivity, non-spherical particles.
Water (300 mL) and Pirfenidone (100 gr; Particle size distribution: D10: 1330 μm; D50: 1950 μm and D90: 2840 μm) were charged into reaction vessel at 25° C. to 35° C. and was placed High speed stirrer/Homogenizer into the reaction mass till required particle size was obtained at 25° C. to 35° C. Particle size distribution of the sample with different time interval was monitored by collecting the sample from reaction mass. After achieving the required particle size, stirred the reaction mixture for 30-60 min at 25° C. to 35° C. Further, the reaction mixture temperature was allowed to cool to 0° C. to 5° C. and stirred for 2-3 hrs at same temperature. Filter the solid and washed with the wet cake with chilled water (100 mL), dried the solid in an oven under vacuum at 60° C. for 4-6 hours.
The following examples were performed using the above described process with different rpm and time; the obtained results are tabulated below: […]

[2] = Particle size (D90) after ethyl acetate / n-heptane anti-solvent crystallisation; type: physicochemical
Procedure: The addition of antisolvent at different temperatures leads to formation of pirfenidone particles with different sizes; for instance: anti solvent addition at 0 to −10° C., preferably at −5±2° C. temperature forms small particles (D90: 50-100μ), at 0 to 10° C., preferably at 7±3° C. temperature forms particles of D90 at 100-150μ and at below 45° C. forms particles of D90 at 250-500μ.
(§1) Pirfenidone (83 g) was dissolved in ethyl acetate (425 mL), at 55-65° C., and then added to pre-cooled (−5±2° C.) n-Heptane (425 mL), over a period of 15-20 min, while maintaining temperature below 20° C. The suspension was stirred, at 0-5° C., for 1-2 h; filtered the product washed with chilled ethyl acetate (50 mL). The wet material was dried, at 60° C., under vacuum, for 6-8 h, to afford Pirfenidone as white colored powder. Yield: 65 g, HPLC purity 99.9%, PSD: (D90) 50-100μ.
as §1, with “Pirfenidone (81” for “Pirfenidone (83”, “pre-cooled (7±3°” for “pre-cooled (−5±2°”, “colored powder” for “colored powder.”, “Yield: 61” for “Yield: 65”, “(D90) 100-150μ.” for “(D90) 50-100μ.”
Pirfenidone (81 g) was dissolved in ethyl acetate (500 mL), at 50-55° C., and then added to pre-cooled (8±3° C.) n-Heptane (500 mL), over a period of 15-20 min, while maintaining temperature below 25° C. The suspension was stirred, at 5-10° C., for 1-2 h; filtered the product washed with chilled ethyl acetate (50 mL). The wet material was dried, at 60° C., under vacuum, for 6-8 h, to afford Pirfenidone as white colored powder Yield: 57 g, HPLC purity 99.9%, PSD: (D90) 150-250μ.
Pirfenidone (80 g) was dissolved in ethyl acetate (400 mL), at 55-65° C., and then added to n-Heptane (400 mL), over a period of 5-10 min, while maintaining temperature below 45° C. The suspension was stirred, at 25-30° C., for 1-2 h; filtered the product washed with chilled ethyl acetate (50 mL). The wet material was dried, at 60° C., under vacuum, for 6-8 h, to afford Pirfenidone as white colored powder, Yield: 55 g, HPLC purity 99.9%, PSD: (D90) 250-500μ.

[3] = milled through a loop mill, US 8,519,140; cited from earlier work
[4] = 2000 RPM, stirring time 120 min
[5] = 2000 RPM, stirring time 240 min

PSD D10 ([1]; 2000 RPM, stirring time 30 min): 24 μm | PSD D50 ([1]; 2000 RPM, stirring time 30 min): 82 μm | PSD D90 ([1]; 2000 RPM, stirring time 30 min): 230 μm | PSD D10 ([1]; 2000 RPM, stirring time 60 min): 24 μm | PSD D50 ([1]; 2000 RPM, stirring time 60 min): 88 μm | PSD D90 ([1]; 2000 RPM, stirring time 60 min): 200 μm | PSD D10 [1, 4]: 21 μm | PSD D50 [1, 4]: 75 μm | PSD D90 [1, 4]: 165 μm | PSD D10 [1, 5]: 21 μm | PSD D50 [1, 5]: 71 μm | PSD D90 [1, 5]: 154 μm | PSD D10 ([1]; 5000 RPM, stirring time 60 min): 17 μm | PSD D50 ([1]; 5000 RPM, stirring time 60 min): 48 μm | PSD D90 ([1]; 5000 RPM, stirring time 60 min): 108 μm | PSD D10 ([1]; 7000 RPM, stirring time 60 min): 13 μm | PSD D50 ([1]; 7000 RPM, stirring time 60 min): 42 μm | PSD D90 ([1]; 7000 RPM, stirring time 60 min): 91 μm | PSD: (D90) ([2]; Example 5: ethyl acetate solution, n-heptane anti-solvent at −5±2° C.): 50-100 μ | PSD: (D90) ([2]; Example 6: ethyl acetate solution, n-heptane anti-solvent at 7±3° C.): 100-150 μ | PSD: (D90) ([2]; Example 7: ethyl acetate solution, n-heptane anti-solvent at 8±3° C., temperature below 25° C.): 150-250 μ | PSD: (D90) ([2]; Example 8: ethyl acetate solution, n-heptane anti-solvent, temperature below 45° C.): 250-500 μ
Structure (SMILES): Cc1ccc(=O)n(-c2ccccc2)c1 [Pirfenidone, 5-methyl-1-phenyl-2-1(H)-pyridone]
particle size [3]: less than 150 μm

— patent US11066368B2, “Process for the preparation and particle size reduction of pirfenidone” (Laurus Labs Limited, priority 2016, dated 2021)
